According to US8722714B2, “Oxazolidine derivatives as NMDA antagonists” (The Honk Kong University of Science and Technology, priority 2008, dated 2014):

What was measured:
[1] = test system: rat primary cortical neurons; assay: Neuron survival assay against NMDA insult (LDH release); format: cell-based; conditions: NMDA 20 μM; for protection of rat primary cortical neurons from NMDA insults (LDH release, fold change vs DMSO): compounds 10-30 μg/ml, 11 DIV; for cell death (LDH release, cell cytotoxicity vs DMSO): compound 10 μg/mL, DIV 11
Description: Primary cortical and hippocampal neurons were prepared from embryonic day 18 (E18) Sprague-Dawley rats. Neurons were plated on 24-well plate (TPP, Corning) at a density of 2×10^5 cells per well using Neurobasal medium (Invitrogen) supplemented with 2% B27 (Invitrogen). Neurons at 11-12 days in vitro (12 DIV) were subjected to drug treatment. Neurons were pretreated with the test compound for 2 hours prior to NMDA treatment. 0.1 μM (+)-MK-801 Hydrogen Maleate (Sigma) was added as a positive control. Briefly, the neurons were rinsed with Locke's solution (5 mM potassium chloride, 128 mM sodium chloride, 2.7 mM calcium chloride, 1 mM di-sodium hydrogen orthophosphate, 5 mM HEPES and 10 mM glucose in Milli-Q water) without Mg^2+, and incubated with addition of glycine (10 μM) for 15 minutes. After the incubation, the neurons were co-treated with the test compound (dissolved in Locke's plus glycine solution) and NMDA (20 μM; Sigma) for 20 minutes. Neurons were rinsed with Locke's plus Mg^2+ and replaced with fresh growth medium. The cell death was assayed and quantified using the lactate dehydrogenase release assay (Roche) after 24 hours.
Embryonic rat cortical neurons (11 DIV) were treated with NMDA (20 μM) in the absence or presence of the LC series of compounds (10-30 μg/ml). […] LDH release in the medium after overnight incubation was measured and fold change was calculated when compared to the solvent control, DMSO.
Embryonic rat cortical neurons (DIV 11) were treated with NMDA (20 μM) in the absence or presence of LC-01 or LC-02 (μg/mL). LDH release in the medium after overnight incubation was measured and cell cytotoxicity was calculated in percentage when compared to the solvent control, DMSO.
Embryonic rat cortical neurons (DIV 11) were treated with NMDA (20 μM) in the absence or presence of LC-06 (μg/mL). LDH release in the medium after overnight incubation was measured and cell cytotoxicity was calculated in percentage when compared to the solvent control, DMSO.
Embryonic rat cortical neurons (11 DIV) were treated with NMDA (20 μM) in the absence or presence of LC-24 or LC-25 (μg/mL). LDH release in the medium after overnight incubation was measured and cell cytotoxicity was calculated in percentage when compared to solvent control (DMSO).

NMDA receptor = assay: Whole-cell patch clamp of NMDA-induced current in hippocampal neurons; format: cell-based, rat; conditions: compound 500 uM co-applied with NMDA 200 uM
Description: Hippocampal neurons were prepared from embryonic day 18 Sprague-Dawley rats. After the hippocampus had been removed from the brain, isolated cells were plated onto Poly d-Lysine (PDL) (P0899, Sigma)-coated 35 mm dishes (153066, NUNC) at a density of 3×10^5 cell per plate using Neurobasal Medium (NB) (21103-049, Gibco) with B27 supplement (17504-044, Gibco), penicillin/streptomycin (15140, Gibco) and 1 mM L-glutamine (25030, Gibco). The cell culture was incubated at 37° C. in a humidified atmosphere of 5% CO2 in air. Half of the medium was changed with NB, B27 and 50 μM L-glutamine every 2 to 3 days. On day 12 in vitro (12 DIV), whole-cell patch clamp was performed. The internal solution contained 120 mM cesium chloride, 20 mM tetraethylammonium chloride, 2 mM magnesium chloride, 1 mM calcium chloride and 10 mM HEPES (pH 7.2). The external solution contained 137 mM sodium chloride, 1 mM sodium bicarbonate, 0.34 mM sodium phosphate dibasic, 5.37 mM potassium chloride, 0.44 mM potassium phosphate monobasic, 2.5 mM HEPES (pH 7.4) and 22.2 mM glucose. Samples mixed with 50 μM NMDA (M3262, Sigma) were arranged in linear array of up to 8 individual controlled pipes (List Medical, Germany) which were connected to solution reservoirs. Memantine (10 μM, M9292, Sigma) was used as a positive control. Pipettes were fire-polished to produce a pipette resistance of 3-5 MΩ. Holding potential of patched cells was kept at −80 mV and currents were recorded using Axopatch-200B amplifier (Axon Instruments, USA). Tetrodotoxin (5 μM) and bicuculline methiodide (20 μM) (0109, Tocris) were present in the bath solution to block synaptic transmission mediated by voltage-gated sodium channels and […], respectively. Data was analyzed by pClamp9 software and percentage of inhibition on NMDA-induced current was represented in comparison to solvent control.
The NMDA receptor is a gated ion channel, which allows inflow of current during a nerve impulse. Antagonists to the receptor would prevent the inflow of current.
In FIG. 1A, hippocampal neurons from embryonic day 18 rats were isolated, trypsinized, plated onto 35-mm plates at a density of 3×10^4 cells/plate and cultured in Neurobasal medium (NB) supplemented with B27 nutrient. Rat hippocampal neurons (10-14 DIV) were treated with NMDA (50 μM) in the absence or presence of the compound LC-02 (10 μg/mL). Data is presented as % of NMDA-induced current. DMSO is the solvent control.
(§1) In FIG. 1B, NMDA antagonistic effect of LC-02 on current responses of a single hippocampal neuron. NMDA (200 uM) was applied for 2.5 sec every 30 sec but these inter-response intervals have been deleted from the above figure for a better resolution of the kinetics of individual responses (blank space in trace). LC-02 (500 uM) was co-applied with NMDA.
In FIG. 1C, effects of LC-02 on pooled NMDA current responses. Normalized peak and plateau currents are shown in the absence (DMSO) and presence of LC-02.
as §1, with “8, (a)” for “1B,”, “LC-06” for “LC-02”, “NMDA. […] (b) Effects of LC-06 on pooled NMDA current responses. Normalized peak and plateau currents are shown in the absence (DMSO) and presence of LC-06.” for “NMDA.”
as §1, with “9, (a)” for “1B,”, “LC-24” for “LC-02”, “NMDA. […] (b) Effects of LC-24 on pooled NMDA current responses. Normalized peak and plateau currents are shown in the absence (DMSO) and presence of LC-24. […]” for “NMDA.”

Structure (SMILES) | protection of rat primary cortical neurons from NMDA insults (LDH release, fold change vs DMSO) [1] | cell death (LDH release, cell cytotoxicity vs DMSO) [1] | pooled NMDA current responses (normalized peak and plateau currents) (NMDA receptor; vs DMSO, n=6) | recovery of NMDA-induced current after compound was washed out (NMDA receptor; single hippocampal neuron)
CC[C@@H]1N[C@@H](CC(C)C)C(CC)(CC)O1 [LC-01] | significantly protected | cell death was markedly reduced | – | –
CCC(C)[C@@H]1N[C@@H](CC)OC1(CC)CC (stereo partly shown) [LC-09] | weaker neuroprotective effects | – | – | –
CCC(C)[C@@H]1N[C@H](CC)OC1(CC)CC (stereo partly shown) [LC-10] | weaker neuroprotective effects | – | – | –
CCC[C@@H]1N[C@@H](C(C)CC)C(CC)(CC)O1 (stereo partly shown) [LC-11] | weaker neuroprotective effects | – | – | –
CCC[C@H]1N[C@@H](C(C)CC)C(CC)(CC)O1 (stereo partly shown) [LC-12] | weaker neuroprotective effects | – | – | –
CCCC1(CCC)O[C@@H](CC)N[C@H]1C(C)CC (stereo partly shown) [LC-14] | weaker neuroprotective effects | – | – | –
CCC[C@H]1N[C@@H](C(C)CC)C(CCC)(CCC)O1 (stereo partly shown) [LC-15] | weaker neuroprotective effects | – | – | –
CCCC1(CCC)O[C@@H](c2ccccc2)N[C@H]1C(C)CC (stereo partly shown) [LC-16] | weaker neuroprotective effects | – | – | –
CCC[C@H]1N[C@@H](Cc2ccccc2)C(CC)(CC)O1 [LC-25] | significantly protected | cell death was markedly reduced | significantly inhibits NMDA-induced current | Partial recovery of NMDA-induced current
